Experiment: mn = molality of the nth substance listed, in mol/kg
Conditions: 101 kPa, Liquid, Alternating current cell with electrodes

CCCCCCCC[N+](C)(C)CCCCCC[N+](C)(C)CCCCCCCC.[Br-].[Br-] + O
Conditions | electrical conductivity [S/m]
288.15 K, m1 = 0.00378 | 0.05571
288.15 K, m1 = 0.00747 | 0.1028
288.15 K, m1 = 0.01106 | 0.1443
288.15 K, m1 = 0.01457 | 0.1827
288.15 K, m1 = 0.01799 | 0.2183
288.15 K, m1 = 0.02133 | 0.252
288.15 K, m1 = 0.02458 | 0.2838
288.15 K, m1 = 0.02776 | 0.3124
288.15 K, m1 = 0.03087 | 0.3407
288.15 K, m1 = 0.0339 | 0.3668
288.15 K, m1 = 0.03687 | 0.3917
288.15 K, m1 = 0.03977 | 0.4158
288.15 K, m1 = 0.0426 | 0.4383
288.15 K, m1 = 0.04537 | 0.4604
288.15 K, m1 = 0.04808 | 0.4812
288.15 K, m1 = 0.05073 | 0.5011
288.15 K, m1 = 0.05333 | 0.521
288.15 K, m1 = 0.05587 | 0.5391
288.15 K, m1 = 0.05835 | 0.555
288.15 K, m1 = 0.06079 | 0.5717
288.15 K, m1 = 0.06318 | 0.5855
288.15 K, m1 = 0.06551 | 0.6042
288.15 K, m1 = 0.0678 | 0.6203
288.15 K, m1 = 0.07005 | 0.6375
288.15 K, m1 = 0.07225 | 0.653
288.15 K, m1 = 0.07441 | 0.6677
288.15 K, m1 = 0.07652 | 0.6826
288.15 K, m1 = 0.0786 | 0.6955
288.15 K, m1 = 0.08064 | 0.7092
288.15 K, m1 = 0.08264 | 0.7199
288.15 K, m1 = 0.0846 | 0.7323
288.15 K, m1 = 0.08652 | 0.7423
288.15 K, m1 = 0.08841 | 0.7524
288.15 K, m1 = 0.09027 | 0.7618
288.15 K, m1 = 0.09209 | 0.7705
288.15 K, m1 = 0.09388 | 0.7794
288.15 K, m1 = 0.09564 | 0.7883
288.15 K, m1 = 0.09737 | 0.7958
288.15 K, m1 = 0.09907 | 0.8039
288.15 K, m1 = 0.1007 | 0.812
288.15 K, m1 = 0.1024 | 0.817
288.15 K, m1 = 0.104 | 0.8214
288.15 K, m1 = 0.1056 | 0.8271
288.15 K, m1 = 0.1071 | 0.8323
288.15 K, m1 = 0.1087 | 0.836
288.15 K, m1 = 0.1102 | 0.8402
288.15 K, m1 = 0.1117 | 0.8452
288.15 K, m1 = 0.1131 | 0.8492
288.15 K, m1 = 0.1146 | 0.8528
288.15 K, m1 = 0.116 | 0.8565
293.15 K, m1 = 0.00416 | 0.07018
293.15 K, m1 = 0.00821 | 0.09599
293.15 K, m1 = 0.01215 | 0.154
293.15 K, m1 = 0.01598 | 0.2062
293.15 K, m1 = 0.01972 | 0.2543
293.15 K, m1 = 0.02336 | 0.2987
293.15 K, m1 = 0.02691 | 0.3399
293.15 K, m1 = 0.03037 | 0.3785
293.15 K, m1 = 0.03374 | 0.415
293.15 K, m1 = 0.03704 | 0.4499
293.15 K, m1 = 0.04025 | 0.4818
293.15 K, m1 = 0.04339 | 0.5127
293.15 K, m1 = 0.04645 | 0.5415
293.15 K, m1 = 0.04944 | 0.5687
293.15 K, m1 = 0.05237 | 0.5953
293.15 K, m1 = 0.05523 | 0.6199
293.15 K, m1 = 0.05802 | 0.6436
293.15 K, m1 = 0.06075 | 0.6658
293.15 K, m1 = 0.06342 | 0.6867
293.15 K, m1 = 0.06604 | 0.707
293.15 K, m1 = 0.06859 | 0.7264
293.15 K, m1 = 0.0711 | 0.7446
293.15 K, m1 = 0.07355 | 0.762
293.15 K, m1 = 0.07595 | 0.7782
293.15 K, m1 = 0.0783 | 0.7934
293.15 K, m1 = 0.0806 | 0.8076
293.15 K, m1 = 0.08285 | 0.8213
293.15 K, m1 = 0.08507 | 0.8335
293.15 K, m1 = 0.08723 | 0.8458
293.15 K, m1 = 0.08936 | 0.8569
293.15 K, m1 = 0.09144 | 0.8677
293.15 K, m1 = 0.09348 | 0.8777
293.15 K, m1 = 0.09549 | 0.8873
293.15 K, m1 = 0.09745 | 0.8958
293.15 K, m1 = 0.09938 | 0.9045
293.15 K, m1 = 0.1013 | 0.9127
293.15 K, m1 = 0.1031 | 0.9206
293.15 K, m1 = 0.105 | 0.9279
293.15 K, m1 = 0.1068 | 0.9349
293.15 K, m1 = 0.1085 | 0.9413
293.15 K, m1 = 0.1103 | 0.9468
293.15 K, m1 = 0.1119 | 0.9533
293.15 K, m1 = 0.1136 | 0.9594
293.15 K, m1 = 0.1153 | 0.9653
293.15 K, m1 = 0.1169 | 0.9709
293.15 K, m1 = 0.1185 | 0.9766
293.15 K, m1 = 0.12 | 0.9819
293.15 K, m1 = 0.1216 | 0.9868
293.15 K, m1 = 0.1231 | 0.9919
293.15 K, m1 = 0.1245 | 0.9968
298.15 K, m1 = 0.00419 | 0.07905
298.15 K, m1 = 0.00827 | 0.1464
298.15 K, m1 = 0.01224 | 0.2076
298.15 K, m1 = 0.0161 | 0.2647
298.15 K, m1 = 0.01987 | 0.3161
298.15 K, m1 = 0.02353 | 0.3644
298.15 K, m1 = 0.02711 | 0.4098
298.15 K, m1 = 0.03059 | 0.4515
298.15 K, m1 = 0.03399 | 0.4914
298.15 K, m1 = 0.0373 | 0.5292
298.15 K, m1 = 0.04053 | 0.5645
298.15 K, m1 = 0.04369 | 0.5979
298.15 K, m1 = 0.04677 | 0.6299
298.15 K, m1 = 0.04978 | 0.6602
298.15 K, m1 = 0.05272 | 0.6887
298.15 K, m1 = 0.05559 | 0.7156
298.15 K, m1 = 0.0584 | 0.7419
298.15 K, m1 = 0.06114 | 0.7666
298.15 K, m1 = 0.06383 | 0.7898
298.15 K, m1 = 0.06645 | 0.812
298.15 K, m1 = 0.06902 | 0.833
298.15 K, m1 = 0.07154 | 0.8526
298.15 K, m1 = 0.074 | 0.8713
298.15 K, m1 = 0.07641 | 0.8887
298.15 K, m1 = 0.07877 | 0.9051
298.15 K, m1 = 0.08108 | 0.9203
298.15 K, m1 = 0.08334 | 0.9348
298.15 K, m1 = 0.08556 | 0.9485
298.15 K, m1 = 0.08773 | 0.9616
298.15 K, m1 = 0.08987 | 0.9739
298.15 K, m1 = 0.09196 | 0.9852
298.15 K, m1 = 0.09401 | 0.9959
298.15 K, m1 = 0.09602 | 1.006
298.15 K, m1 = 0.09799 | 1.016
298.15 K, m1 = 0.09992 | 1.025
298.15 K, m1 = 0.1018 | 1.033
298.15 K, m1 = 0.1037 | 1.042
298.15 K, m1 = 0.1055 | 1.05
298.15 K, m1 = 0.1073 | 1.058
298.15 K, m1 = 0.1091 | 1.066
298.15 K, m1 = 0.1108 | 1.073
298.15 K, m1 = 0.1125 | 1.08
298.15 K, m1 = 0.1142 | 1.087
298.15 K, m1 = 0.1158 | 1.094
298.15 K, m1 = 0.1174 | 1.1
298.15 K, m1 = 0.119 | 1.107
298.15 K, m1 = 0.1206 | 1.112
298.15 K, m1 = 0.1221 | 1.118
298.15 K, m1 = 0.1236 | 1.124
298.15 K, m1 = 0.1251 | 1.13
303.15 K, m1 = 0.00379 | 0.0878
303.15 K, m1 = 0.00748 | 0.1271
303.15 K, m1 = 0.01108 | 0.1968
303.15 K, m1 = 0.01459 | 0.2594
303.15 K, m1 = 0.01801 | 0.3174
303.15 K, m1 = 0.02135 | 0.3714
303.15 K, m1 = 0.02461 | 0.4209
303.15 K, m1 = 0.02779 | 0.4681
303.15 K, m1 = 0.0309 | 0.5124
303.15 K, m1 = 0.03394 | 0.5542
303.15 K, m1 = 0.03691 | 0.5939
303.15 K, m1 = 0.03981 | 0.6314
303.15 K, m1 = 0.04264 | 0.6668
303.15 K, m1 = 0.04542 | 0.7005
303.15 K, m1 = 0.04813 | 0.7326
303.15 K, m1 = 0.05078 | 0.7638
303.15 K, m1 = 0.05338 | 0.7917
303.15 K, m1 = 0.05592 | 0.8194
303.15 K, m1 = 0.05841 | 0.8457
303.15 K, m1 = 0.06085 | 0.8704
303.15 K, m1 = 0.06324 | 0.8926
303.15 K, m1 = 0.06558 | 0.9126
303.15 K, m1 = 0.06787 | 0.9342
303.15 K, m1 = 0.07011 | 0.9547
303.15 K, m1 = 0.07232 | 0.9738
303.15 K, m1 = 0.07448 | 0.9921
303.15 K, m1 = 0.07659 | 1.01
303.15 K, m1 = 0.07867 | 1.026
303.15 K, m1 = 0.08071 | 1.04
303.15 K, m1 = 0.08271 | 1.055
303.15 K, m1 = 0.08467 | 1.069
303.15 K, m1 = 0.0866 | 1.082
303.15 K, m1 = 0.08849 | 1.094
303.15 K, m1 = 0.09034 | 1.107
303.15 K, m1 = 0.09217 | 1.118
303.15 K, m1 = 0.09396 | 1.129
303.15 K, m1 = 0.09572 | 1.139
303.15 K, m1 = 0.09745 | 1.148
303.15 K, m1 = 0.09915 | 1.158
303.15 K, m1 = 0.1008 | 1.168
303.15 K, m1 = 0.1025 | 1.175
303.15 K, m1 = 0.1041 | 1.183
303.15 K, m1 = 0.1057 | 1.191
303.15 K, m1 = 0.1072 | 1.198
303.15 K, m1 = 0.1087 | 1.206
303.15 K, m1 = 0.1103 | 1.215
303.15 K, m1 = 0.1118 | 1.22
303.15 K, m1 = 0.1132 | 1.228

Source: the NIST ThermoML archive (doi:10.1021/je500804j)
